Data from US12172960B2, “Organic compound salts” (priority 2022, dated 2024).
In brackets after ≈: the same amount, converted by molar mass. Several values for one entry are separate records, joined by “and”; a condition that tells them apart may be missing. Identical values can stand only once.

Assays:
Assay type in all cases: physicochemical
[1] = Dynamic vapor sorption (DVS) analysis; conditions: for further increase between 60% RH and 90% RH / water gain up to 60% RH / total water absorption over the humidity range: first sorption cycle, hydrobromide; for further increase between 60% RH and 90% RH: 60% RH to 90% RH; for total water absorption over the humidity range: up to 90% RH
Description: Dynamic vapor sorption (DVS) data was collected for both 5-MeO DMT HBr Pattern A and Pattern B. The DSV data are shown in FIG. 10 (Pattern A) und FIG. 11 (Pattern B). DVS profiles are almost identical.

[2] = Solubility and pH in water for injection (24 hours equilibration, 25° C.); conditions: for pH value of the suspension/solution after 24 hours: in water for injection, determined at 25° C.; for solubility at 24 h: water for injection, 24 hours of equilibration, 25° C.
Method: 5-MeO-DMT freebase and 5-MeO-DMT hydrobromide (30 mg) were weighed out into crystallisation tubes, water for injection (WFI; 150 μL, 5 vols) was charged and samples were left to equilibrate (25° C.) over 24 hours.
The free base led to a suspension. An additional 850 μl of water was added. The mixture was still a suspension. […] The pH value of the suspension after 24 hours was 9.93, determined at 25° C.
In the case of 5-MeO-DMT HBr, a solution was obtained. […] The pH value of the solution after 24 hours was 6.84, determined at 25° C.

[3] = Particle size distribution by laser light scattering; conditions: sample weight 800 mg; listed as HBr salt, hydrobromide
Method: The particle size distribution of a sample obtained as in the above example was determined using a laser light scattering method.

[4] = Flow properties (bulk density, tapped density); conditions: for Hausner Factor: Tapped density/Bulk density; for Carr's Index: calculated from tapped and bulk density
Method: The bulk density and the tapped density of an HBr salt sample as obtained according to the above method was determined applying standard methods. • Bulk density: 0.19 g/cm^3 • Tapped density: 0.25 g/cm^3 • From this, the Carr's Index characterizing flow properties can be calculated ([…]). The index is 24%.

| Compound | modification of form following equilibration at extremes of relative humidity [1] | further increase between 60% RH and 90% RH [1] [wt %] | water gain up to 60% RH [1] [%] | total water absorption over the humidity range [1] [wt %] | pH value of the suspension/solution after 24 hours [2] | solubility at 24 h ([2]; pH 6.84, thermodynamic from solid) [mg/mL] | Dv10 [3] | Dv90 [3] | Bulk density [4] [g/mL] | Tapped density [4] [g/mL] | Hausner Factor [4] | Carr's Index [4] [%] | solubility at 24 h ([2]; pH 9.93, thermodynamic from solid) [mg/mL] |
| --- | --- | --- | --- | --- | --- | --- | --- | --- | --- | --- | --- | --- | --- |
| Br.COc1ccc2[nH]cc(CCN(C)C)c2c1 [5-MeO-DMT HBr Pattern A, 5-methoxy-N,N-dimethyltryptamine hydrobromide] | Neither form showed any modification | 1.56 | 0.13 | 1.7 |  |  |  |  |  |  |  |  |  |
| Br.COc1ccc2[nH]cc(CCN(C)C)c2c1 [5-MeO-DMT HBr Pattern B, 5-methoxy-N,N-dimethyltryptamine hydrobromide] | Neither form showed any modification | 1.57 | 0.14 | 1.71 |  |  |  |  |  |  |  |  |  |
| Br.COc1ccc2[nH]cc(CCN(C)C)c2c1 [5-MeO-DMT HBr, 5-methoxy-N,N-dimethyltryptamine hydrobromide] |  |  |  |  | 6.84 | > 200 | 57.8 μm and 60.8 μm and 65.1 μm | 613 μm and 630 μm and 643 μm | 0.19 | 0.25 | 1.31 | 24 |  |
| COc1ccc2[nH]cc(CCN(C)C)c2c1 [free base, 5-Methoxy-N,N-dimethyltryptamine, reference compound] |  |  |  |  | 9.93 |  |  |  | 0.32 | 0.54 | 1.68 | 41 | 3.29 (≈ 15.1 mM) |
